Reference: patent US20100048644A1 (BEIJING HUAANFO BIOMEDICAL RESEARCH CENTRE INC., priority 2006, published 2010)
“And” between values parts separate entries of the source, which are not always exact repeats. Equal entries are not always repeated.

How the values were obtained:
rats with BPH = assay: Urodynamic parameters and urine volumes in castrated, testosterone propionate-treated SD rats with BPH; assay type: in vivo, rat (male SD)
Experimental: Afterwards, the bilateral testicles of the rats were resected under an aseptic condition. Then the rats received an intramuscular injection of penicillin at 20000 U/kg/d for 3 days, and 1 week later a subcutaneous injection of testosterone propionate (dissolved in olive oil) at 0.5 mg/pec, once daily for 21 consecutive days.
(§1) In the treatment groups, the rats were orally administered by infusion at 1 ml/100 g body weight once daily for 14 consecutive days after 7-day injection with testosterone propionate. In the blank and model groups, the rats were orally perfused with isovolumetric physiological saline.
(§2) The rats were anaesthetized by a peritoneal injection of 20% ethyl carbamate at a dose of 1000 mg/kg. The rat bladder was exposed by cutting a longitudinal incision on the upper of pubic arch. Piercing the top of bladder made a little hole, where a catheter with cannulas was inserted. The outside cannula (Φ 1.2 mm) with a pressreceptor was linked to PC-Lab multi-lead physiological recording system. The inside cannula (Φ 0.61 mm) was connected to an injection pump with constant infusion speed (2 ml/h). After last administration, the urodynamic parameters, single urine volume, and residual urine volume in rats were respectively collected.
(§3) Data were presented as mean±SD. One way-ANOVA was employed for group comparison.

[1] = system: spontaneous hypertensive rats (SHR) with prostate hyperplasia; assay: Urodynamic parameters and urine volumes in spontaneous hypertensive rats (SHR) with prostate hyperplasia; assay type: in vivo, rat (SHR); conditions: Amlodipine 0.5 mg/kg (A3) oral once daily 14 days
Experimental: as §1, §2, §3

[2] = system: patients with low urinary tract syndrome (LUTS) and mild to moderate hypertension; assay: Clinical study, Amlodipine 5 mg vs Terazosin 2 mg for 4 weeks: IPSS, urinary flow rate, blood pressure; assay type: in vivo, human; parameters: key to BOO (obstructive symptoms score) / OAB (irritative symptoms score): IPSS sub-scores in points (symptom items of IPSS); conditions: for Percentage of improvement at Week 4: BOO / Percentage of improvement at Week 4: DBP / Percentage of improvement at Week 4: IPSS / Percentage of improvement at Week 4: OAB / Percentage of improvement at Week 4: Qave / Percentage of improvement at Week 4: Qmax / Percentage of improvement at Week 4: SBP: Week 4 vs Week 0
Source text: 1) Male, 50-75 years old. […] 3) International Prostate Symptom Score (IPSS)≧8 points
Storage, reservation and delivery of drugs were in accordance with Standard Operation Procedure (SOP).
Obstructive symptoms score includes hesitancy of micturition, reduced or interrupted urinary stream and sensation of incomplete bladder emptying, which mainly reflect BOO. Irritative symptoms score refers to urinary urgency and frequency, and an increase in night micturition, reflecting OAB symptoms. In this study, a total score of IPSS is considered as primary index. Sub-scores on BOO and OAB were also considered.
All data, doubly entered using Epi-info 3.0 and presented as mean±standard deviation (SD), were analyzed using SAS 8.0. A paired t-test was employed to compare pre- and post-treatment scores, and a multiple regression analysis was further performed to adjust for important covariates. Difference was considered significant at P<0.05.

[3] = Amlodipine 0.25 mg/kg (A1) oral once daily 14 days
[4] = Amlodipine 0.5 mg/kg (A2) oral once daily 14 days
[5] = Week 0 (before treatment), groups Amlodipine 5 mg (N=90), Terazosin 2 mg (N=62)
[6] = Week 4, Amlodipine 5 mg or Terazosin 2 mg oral for 4 consecutive weeks
[7] = Amlodipine 5 mg or Terazosin 2 mg oral for 4 weeks
[8] = multiple regression adjusted for age and BMI, Amlodipine 5 mg vs Terazosin 2 mg, 4 weeks
[9] = multiple regression, crude, Amlodipine 5 mg vs Terazosin 2 mg, 4 weeks

For `CCOC(=O)C1=C(COCCN)NC(C)=C(C(=O)OC)C1c1ccccc1Cl` (stereo not drawn) [Amlodipine], the Interval of micturition (rats with BPH; [3]) was 734.8 ± 210.5 s, the “Peak value of micturition pressure” value (rats with BPH; [3]) was 37.5 ± 7.0 mmHg and the “Point pressure of micturition” value (rats with BPH; [3]) was 33.4 ± 3.3 mmHg. For the same compound, the “Qave. (average urinary flow rate)” value (rats with BPH; [3]) was 3.7 ± 1.2 mL/s, the Time of micturition (rats with BPH; [3]) was 8.9 ± 1.6 s and the Interval of micturition (rats with BPH; [4]) was 762.3 ± 274.8 s. For the same compound, the “Peak value of micturition pressure” value (rats with BPH; [4]) was 30.5 ± 5.5 mmHg, the “Point pressure of micturition” value (rats with BPH; [4]) was 30.6 ± 3.9 mmHg and the “Qave. (average urinary flow rate)” value (rats with BPH; [4]) was 4.0 ± 1.9 mL/s. The Time of micturition (rats with BPH; [4]) was 8.4 ± 1.8 s, the Interval of micturition [1] was 786.0 ± 237.5 s and the “Peak value of micturition pressure” value [1] was 31.8 ± 7.3 mmHg. The “Point pressure of micturition” value [1] was 31.4 ± 3.6 mmHg, the “Qave. (average urinary flow rate)” value [1] was 4.4 ± 1.6 mL/s and the Time of micturition [1] was 8.0 ± 1.1 s. For the same compound, the “BOO (obstructive symptoms score)” value [2, 5] was 9.1 ± 4.2, the DBP [2, 5] was 88.6 ± 8.9 mmHg and the “OAB (irritative symptoms score)” value [2, 5] was 7.3 ± 3.3. It also gave a Qave [2, 5] of 8.9 ± 4.1 mL/s, a Qmax [2, 5] of 17.3 ± 6.7 mL/s and an SBP [2, 5] of 155.4 ± 16.1 mmHg. The “BOO (obstructive symptoms score)” value [2, 6] was 5.8 ± 4.6, the DBP [2, 6] was 82.0 ± 8.9 mmHg and the IPSS [2, 6] was 11.1 ± 6.7. The “OAB (irritative symptoms score)” value [2, 6] was 5.5 ± 3.2, the Qave [2, 6] was 8.8 ± 3.8 mL/s and the Qmax [2, 6] was 17.7 ± 6.9 mL/s. The SBP [2, 6] was 140.9 ± 15.4 mmHg, the “Percentage of improvement at Week 4: BOO” value [2, 7] was 33.3 ± 53.2 % and the “Percentage of improvement at Week 4: DBP” value [2, 7] was 7.2 ± 7.1 % and 7.22 ± 7.09%. The “Percentage of improvement at Week 4: IPSS” value [2, 7] was 30.2 ± 39.7 % and 30.17 ± 39.7%, the “Percentage of improvement at Week 4: OAB” value [2, 7] was 17.3 ± 49.3 % and the “Percentage of improvement at Week 4: Qave” value [2, 7] was 5.0 ± 35.2% and 5.04 ± 35.25%. The “Percentage of improvement at Week 4: Qmax” value [2, 7] was 7.1 ± 41.1% and 7.09 ± 41.10%, the “Percentage of improvement at Week 4: SBP” value [2, 7] was 8.9 ± 9.6 % and 8.89 ± 9.61% and the “Percentage of improvement, (2)-(1) Amlodipine minus Terazosin, β Adjust: BOO” value [2, 8] was 0.3. For the same compound, the “Percentage of improvement, (2)-(1) Amlodipine minus Terazosin, β Adjust: DBF” value [2, 8] was 5.1, the “Percentage of improvement, (2)-(1) Amlodipine minus Terazosin, β Adjust: IPSS” value [2, 8] was 1.4 and the “Percentage of improvement, (2)-(1) Amlodipine minus Terazosin, β Adjust: OAB” value [2, 8] was 8.6. The “Percentage of improvement, (2)-(1) Amlodipine minus Terazosin, β Adjust: Qave” value [2, 8] was −8.4, the “Percentage of improvement, (2)-(1) Amlodipine minus Terazosin, β Adjust: Qmax” value [2, 8] was −5.0 and the “Percentage of improvement, (2)-(1) Amlodipine minus Terazosin, β Adjust: SBP” value [2, 8] was 5.7. For the same compound, the “Percentage of improvement, (2)-(1) Amlodipine minus Terazosin, β Crude: BOO” value [2, 9] was 1.1, the “Percentage of improvement, (2)-(1) Amlodipine minus Terazosin, β Crude: DBF” value [2, 9] was 4.9 and the “Percentage of improvement, (2)-(1) Amlodipine minus Terazosin, β Crude: IPSS” value [2, 9] was 2.0. The “Percentage of improvement, (2)-(1) Amlodipine minus Terazosin, β Crude: OAB” value [2, 9] was 9.6, the “Percentage of improvement, (2)-(1) Amlodipine minus Terazosin, β Crude: Qave” value [2, 9] was −8.7 and the “Percentage of improvement, (2)-(1) Amlodipine minus Terazosin, β Crude: Qmax” value [2, 9] was −5.7. For the same compound, the “Percentage of improvement, (2)-(1) Amlodipine minus Terazosin, β Crude: SBP” value [2, 9] was 5.6.
`COc1cc2nc(N3CCN(C(=O)C4CCCO4)CC3)nc(N)c2cc1OC` (stereo not drawn) [Terazosin] was tested, and the “indices improved between week 0 and week 4” value [2, 7] was “remarkable improvement in IPSS, BOO-related score, maximum urinary flow rate (Qmax) and Qave, and a decrease in systolic blood pressure”, the “indices without improvement between week 0 and week 4” value [2, 7] was “no improvement in OAB-related score and diastolic blood pressure” and the “BOO (obstructive symptoms score)” value [2, 5] was 6.6 ± 3.5. The DBP [2, 5] was 86.6 ± 9.0 mmHg, the IPSS [2, 5] was 13.2 ± 4.4 and the “OAB (irritative symptoms score)” value [2, 5] was 6.6 ± 3.0. For the same compound, the Qave [2, 5] was 8.9 ± 3.9 mL/s, the Qmax [2, 5] was 17.7 ± 7.0 mL/s and the SBP [2, 5] was 152.8 ± 15.9 mmHg. The “BOO (obstructive symptoms score)” value [2, 6] was 4.2 ± 4.3, the DBP [2, 6] was 84.5 ± 11.4 mmHg and the IPSS [2, 6] was 9.4 ± 5.9. For the same compound, the “OAB (irritative symptoms score)” value [2, 6] was 5.3 ± 2.8, the Qave [2, 6] was 9.9 ± 4.2 mL/s and the Qmax [2, 6] was 19.4 ± 7.4 mL/s. The SBP [2, 6] was 147.0 ± 17.8 mmHg, the “Percentage of improvement at Week 4: BOO” value [2, 7] was 32.2 ± 63.5 % and the “Percentage of improvement at Week 4: DBP” value [2, 7] was 2.3 ± 10.1% and 2.31 ± 10.12%. For the same compound, the “Percentage of improvement at Week 4: IPSS” value [2, 7] was 28.1 ± 40.5 % and 28.15 ± 40.5%, the “Percentage of improvement at Week 4: OAB” value [2, 7] was 7.7 ± 54.8% and the “Percentage of improvement at Week 4: Qave” value [2, 7] was 13.8 ± 25.9 % and 13.77 ± 25.86%. The “Percentage of improvement at Week 4: Qmax” value [2, 7] was 12.8 ± 30.5 % and 12.8 ± 30.47% and the “Percentage of improvement at Week 4: SBP” value [2, 7] was 3.3 ± 11.9 % and 3.28 ± 11.92%.
